In patent US5109011A, “P-acylaminophenoxycarbamates and derivatives” (Hoechst-Roussel Pharmaceuticals Incorporated, priority 1990, dated 1992):

system: phenyl-para-quinone induced writhing; test: phenyl-para-quinone writhing assay in mice (analgesia); format: in vivo; conditions: Mus musculus, oral, read-out: Analgesic Activity ED50 (oral dose at which 50% of the phenyl-para-quinone induced writhing is inhibited)
Text: Exptl. Biol. Med., 95,729 (1957)]. Presented in Table I is the analgesic effect of some of the compounds of the invention expressed as the oral dose at which 50% of the phenyl-para-quinone induced writhing is inhibited in the animals, i.e., the ED50 value.

Question: Which ED50 does the source give for `CC(=O)Nc1ccc(OC(=O)N(C)OC(C)=O)cc1` [4-(Acetylamino)phenyl-N-(acetyloxy)-N-methyl carbamate] here?
Answer: 42.7 mg/kg

Question: With `CC(=O)Nc1ccc(OC(=O)N(C)O)cc1` [4-(Acetylamino)phenyl-N-hydroxy-N-methyl carbamate] as the compound, how does the ED50 read?
Answer: 32.3 mg/kg

Question: `CC(=O)Nc1ccc(OC(=O)N(C)OCc2ccccc2)cc1` [4-(acetylamino)phenyl-N-benzyloxy-N-methyl carbamate] was tested. Which ED50 did it give?
Answer: 28.5 mg/kg

Question: With `CC(=O)Nc1ccc(O)cc1` [Acetaminophen, reference compound] as the compound, how does the ED50 read?
Answer: 33.8 mg/kg
